Experiments:
Assay in all cases: relative viability (nuclei count vs DMSO), 5 days (fraction); higher = more cells survive
[1] = compound: CO[C@@H]1[C@H](N(C)C(=O)c2ccccc2)C[C@H]2O[C@]1(C)n1c3ccccc3c3c4c(c5c6ccccc6n2c5c31)C(=O)NC4 [Midostaurin] + Cc1cc(Nc2cc(N3CCN(C)CC3)nc(Sc3ccc(NC(=O)C4CC4)cc3)n2)n[nH]1 [Tozasertib] (partner 0.1 µM)
Procedure, shortened: (§1)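 Five library-drug doses in √10 steps were combined with a fixed anchor-drug dose, or a single drug was given alone, by pin tool to lung cancer cell lines in 1536-well plates the day after seeding. Nuclei were stained and counted after 5 days. Relative viability is the nuclei count in treated wells over that in vehicle wells, taken as the median of duplicate plates.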

[2] = compound: CO[C@@H]1[C@H](N(C)C(=O)c2ccccc2)C[C@H]2O[C@]1(C)n1c3ccccc3c3c4c(c5c6ccccc6n2c5c31)C(=O)NC4 [Midostaurin] + NC(=O)Nc1cc(-c2cccc(F)c2)sc1C(=O)N[C@H]1CCCNC1 [AZD7762] (partner 0.2 µM)
Procedure, shortened: as §1

[3] = compound: CO[C@@H]1[C@H](N(C)C(=O)c2ccccc2)C[C@H]2O[C@]1(C)n1c3ccccc3c3c4c(c5c6ccccc6n2c5c31)C(=O)NC4 [Midostaurin] + COc1cccc2cc(-c3nc([C@H]4CC[C@H](C(=O)O)CC4)n4ncnc(N)c34)[nH]c12 [OSI-027] (partner 0.5 µM)
Procedure, shortened: as §1

[4] = compound: COc1cc(-c2nn([C@H]3CC[C@H](N4CCN(C(C)=O)CC4)CC3)c3ncnc(N)c23)ccc1NC(=O)c1cc2ccccc2n1C + CCNC(=O)c1noc(-c2cc(C(C)C)c(O)cc2O)c1-c1ccc(CN2CCOCC2)cc1 [Luminespib] (partner 0.01 µM)
Procedure, shortened: as §1

[5] = compound: COc1cc(-c2nn([C@H]3CC[C@H](N4CCN(C(C)=O)CC4)CC3)c3ncnc(N)c23)ccc1NC(=O)c1cc2ccccc2n1C + Cc1nc(NC(=O)N2CCC[C@H]2C(N)=O)sc1-c1ccnc(C(C)(C)C(F)(F)F)c1 [Alpelisib] (partner 2 µM)
Procedure, shortened: as §1

Cell Line | relative viability ([1]; first compound 0.01 µM) | relative viability ([1]; first compound 0.03162 µM) | relative viability ([1]; first compound 0.1 µM) | relative viability ([1]; first compound 0.3162 µM) | relative viability ([2]; first compound 0.01 µM) | relative viability ([2]; first compound 0.3162 µM) | relative viability ([3]; first compound 0.01 µM) | relative viability ([3]; first compound 0.03162 µM) | relative viability ([3]; first compound 0.1 µM) | relative viability ([3]; first compound 0.3162 µM) | relative viability ([4]; first compound 0.0128 µM) | relative viability ([4]; first compound 0.04048 µM) | relative viability ([4]; first compound 0.128 µM) | relative viability ([4]; first compound 1.28 µM) | relative viability ([5]; first compound 0.0128 µM) | relative viability ([5]; first compound 0.04048 µM) | relative viability ([5]; first compound 0.128 µM) | relative viability ([5]; first compound 1.28 µM) | relative viability ([2]; first compound 0.03162 µM) | relative viability ([2]; first compound 0.1 µM)
NCI-H1648 | 0.511 | 0.609 | 0.417 | 0.299 | 0.766 | 0.656 | 0.285 | 0.221 | 0.275 | 0.233 | – | – | – | – | – | – | – | – | – | –
SK-MES-1 | 0.803 | 0.819 | 0.741 | 0.578 | – | – | 0.55 | 0.531 | 0.548 | 0.44 | 0.686 | 0.928 | 0.791 | 0.375 | 0.972 | 0.872 | 0.789 | 0.668 | – | –
HCC-366 | 0.146 | 0.126 | 0.0694 | 0.0567 | 0.235 | 0.0975 | 0.961 | 0.954 | 0.567 | 0.811 | – | – | – | – | 0.444 | 0.374 | 0.418 | 0.259 | 0.373 | 0.273
201T | 0.974 | 0.913 | 0.915 | 0.891 | 0.509 | 0.66 | 0.725 | 0.787 | 0.751 | 0.818 | 1.04 | 1.1 | 0.929 | 0.539 | 0.996 | 1.09 | 0.908 | 0.591 | 0.687 | 0.595
HCC-827 | 0.407 | 0.352 | 0.4 | 0.416 | 0.246 | 0.215 | 0.719 | 0.708 | 0.821 | 0.8 | 0.633 | 0.66 | 0.816 | 0.203 | 1.11 | 0.961 | 0.942 | 0.726 | 0.206 | 0.237
NCI-H647 | 0.411 | 0.35 | 0.293 | 0.18 | 0.576 | 0.324 | 0.637 | 0.652 | 0.779 | 0.753 | 0.172 | 0.168 | 0.158 | 0.159 | 1.03 | 1.18 | 0.945 | 0.429 | 0.392 | 0.41
NCI-H2023 | 0.408 | 0.316 | 0.29 | 0.171 | – | – | 0.426 | 0.385 | 0.41 | 0.302 | 0.697 | 0.983 | 0.622 | 0.767 | 0.607 | 0.651 | 0.546 | 0.521 | – | –
NCI-H520 | 0.434 | 0.411 | 0.457 | 0.407 | – | – | 0.293 | 0.24 | 0.403 | 0.359 | 0.219 | 0.211 | 0.174 | 0.243 | 0.881 | 0.908 | 0.697 | 0.471 | – | –
RERF-LC-KJ | 0.47 | 0.464 | 0.433 | 0.321 | 0.994 | 1.03 | 0.622 | 0.614 | 0.673 | 0.663 | 1.24 | 1.36 | 1.28 | 1.29 | 0.811 | 0.717 | 0.555 | 0.654 | 0.96 | 1.05
A-427 | 0.232 | 0.215 | 0.193 | 0.172 | 0.742 | 0.723 | 0.449 | 0.467 | 0.434 | 0.512 | 1.16 | 0.867 | 0.895 | 0.794 | 1.15 | 0.959 | 1.01 | 0.908 | 0.727 | 0.871
NCI-H441 | 0.592 | 0.631 | 0.564 | 0.401 | 1.15 | 1.1 | 0.629 | 0.525 | 0.405 | 0.529 | 0.337 | 0.347 | 0.31 | 0.244 | 0.762 | 0.985 | 0.556 | 0.576 | 0.888 | 0.984
NCI-H1703 | – | – | – | – | 0.141 | 0.12 | – | – | – | – | – | – | – | – | 0.372 | 0.243 | 0.228 | 0.157 | 0.115 | 0.123
NCI-H1792 | – | – | – | – | 0.786 | 0.176 | 0.664 | 0.8 | 0.659 | 0.617 | 0.424 | 0.46 | 0.498 | 0.35 | 0.78 | 0.593 | 0.719 | 0.55 | 0.725 | 0.67
Calu-6 | – | – | – | – | – | – | – | – | – | – | – | – | – | – | 0.927 | 0.936 | 0.943 | 0.829 | – | –
SK-LU-1 | 0.337 | 0.449 | 0.278 | 0.202 | – | – | 0.347 | 0.333 | 0.321 | 0.271 | 0.213 | 0.187 | 0.203 | 0.141 | 1.15 | 0.917 | 0.821 | 0.441 | – | –
PC-3 [JPC-3] | 0.886 | 0.809 | 0.865 | 0.867 | 0.737 | 0.869 | 0.718 | 0.579 | 0.78 | 0.806 | 0.681 | 0.838 | 0.712 | 0.711 | 1.04 | 1.09 | 1.04 | 1.09 | 0.892 | 0.759
EMC-BAC-2 | 0.267 | 0.296 | 0.243 | 0.273 | 1.08 | 1.08 | 0.346 | 0.31 | 0.336 | 0.218 | 1.21 | 1.18 | 1.23 | 1.06 | 0.749 | 0.743 | 0.696 | 0.514 | 1.03 | 1.04
LK-2 | 0.175 | 0.147 | 0.18 | 0.173 | 0.494 | 0.679 | 0.232 | 0.232 | 0.248 | 0.197 | 0.21 | 0.171 | 0.21 | 0.159 | 0.91 | 1.26 | 1.07 | 0.789 | 0.408 | 0.346
